Reference: ChEMBL document CHEMBL1146251, “Synthesis and SAR of p38alpha MAP kinase inhibitors based on heterobicyclic scaffolds” (Bioorg Med Chem Lett, 2007)

Target: Mitogen-activated protein kinase 14 (Homo sapiens, UniProt Q16539)
Assay: Inhibition of p38-alpha MAP kinase

Chain of Mitogen-activated protein kinase 14 (Q16539 whole entry): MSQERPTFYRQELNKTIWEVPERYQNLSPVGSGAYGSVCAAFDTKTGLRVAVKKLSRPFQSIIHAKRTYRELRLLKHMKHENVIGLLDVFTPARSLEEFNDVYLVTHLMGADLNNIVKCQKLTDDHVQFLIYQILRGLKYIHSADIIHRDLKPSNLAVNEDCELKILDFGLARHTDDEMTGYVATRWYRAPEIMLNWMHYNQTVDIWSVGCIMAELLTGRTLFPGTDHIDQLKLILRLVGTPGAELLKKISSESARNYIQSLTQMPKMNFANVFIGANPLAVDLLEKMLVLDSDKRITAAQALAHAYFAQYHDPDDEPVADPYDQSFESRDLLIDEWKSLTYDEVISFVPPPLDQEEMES

Q: Which IC50 does the source give for `Cn1ccc2cc(C(=O)N3CCn4c(cnc4-c4ccc(F)cc4F)C3)c(Cl)cc21` here?
A: Its IC50 is 50 nM.

Q: With `Cn1ccc2cc(C(=O)N3CCc4c(cnn4-c4ccccc4Cl)C3)ccc21` as the compound, how does the IC50 read?
A: The IC50 was 30 nM.

Q: `CN(C)C(=O)C(=O)c1c[nH]c2cc(Cl)c(C(=O)N3CCn4c(cnc4-c4ccc(F)cc4F)C3)cc12` was tested. Which IC50 did it give?
A: Its IC50 is 11 nM.

Q: With `COc1nc2c(cc1C(=O)N1CCn3c(cnc3-c3ccc(F)cc3F)C1)c(C(=O)C(=O)N1CCC(O)C1)cn2C` (racemic) as the compound, how does the IC50 read?
A: The IC50 was 16 nM.

Q: Which IC50 does the source give for `CN(C)C(=O)C(=O)c1c[nH]c2ccc(C(=O)N3CCc4c(cnn4-c4ccccc4Cl)C3)cc12` here?
A: The IC50 was 37 nM.

Q: `O=C(c1c(F)cccc1F)N1CCn2c(cnc2-c2ccc(F)cc2F)C1` was tested. Which IC50 did it give?
A: Its IC50 is 167 nM.

Q: `COc1nc2[nH]cc(C(=O)C(=O)N(C)C)c2cc1C(=O)N1CCn2c(cnc2-c2ccc(F)cc2F)C1` was tested. Which IC50 did it give?
A: The IC50 was 29 nM.

Q: With `COc1nc2[nH]ccc2cc1C(=O)N1CCc2c(cnn2-c2ccccc2Cl)C1` as the compound, how does the IC50 read?
A: Its IC50 is 137 nM.

Q: For `CC(C)n1ccc2cc(C(=O)N3CCc4c(cnn4-c4ccccc4Cl)C3)ccc21`, which IC50 is on record?
A: Its IC50 is 39 nM.

Q: Which IC50 does the source give for `O=C(c1c(F)cccc1F)N1CCc2c(cnn2-c2ccccc2Cl)C1` here?
A: Its IC50 is 68 nM.

Q: `O=C(c1cc2ccccc2[nH]1)N1CCc2c(cnn2-c2ccccc2Cl)C1` was tested. Which IC50 did it give?
A: Its IC50 is 154 nM.

Q: With `CN(C)C(=O)C(=O)c1cn(C)c2cc(Cl)c(C(=O)N3CCc4c(ncnc4-c4ccc(F)cc4F)C3)cc12` as the compound, how does the IC50 read?
A: Its IC50 is 195 nM.

Q: Which IC50 does the source give for `COc1nc2[nH]cc(C(=O)C(=O)N(C)C)c2cc1C(=O)N1CCc2c(cnn2-c2ccccc2Cl)C1` here?
A: The IC50 was 29 nM.

Q: `O=C(c1ccc(F)cc1F)N1CCn2c(cnc2-c2ccc(F)cc2F)C1` was tested. Which IC50 did it give?
A: Its IC50 is 593 nM.

Q: Which IC50 does the source give for `O=C(c1ccc2cc[nH]c2c1)N1CCc2c(cnn2-c2ccccc2Cl)C1` here?
A: The IC50 was 40 nM.

Q: For `COc1nc2[nH]ccc2cc1C(=O)N1CCn2c(cnc2-c2ccc(F)cc2F)C1`, which IC50 is on record?
A: Its IC50 is 164 nM.

Q: With `O=C(c1cccc2[nH]ccc12)N1CCc2c(cnn2-c2ccccc2Cl)C1` as the compound, how does the IC50 read?
A: Its IC50 is 37 nM.

Q: For `Cn1cc(C(=O)N2CCc3c(cnn3-c3ccccc3Cl)C2)c2ccccc21`, which IC50 is on record?
A: Its IC50 is 40 nM.

Q: Which IC50 does the source give for `COc1cc2c(cc1C(=O)N1CCn3c(cnc3-c3ccc(F)cc3F)C1)c(C(=O)C(=O)N(C)C)cn2C` here?
A: Its IC50 is 13 nM.

Q: `CN(C)C(=O)C(=O)c1cn(C)c2cc(Cl)c(C(=O)N3CCc4c(cnn4-c4ccccc4Cl)C3)cc12` was tested. Which IC50 did it give?
A: The IC50 was 33 nM.

Q: How did the IC50 turn out when `Cn1ccc2cc(C(=O)N3CCc4c(cnn4-c4ccccc4Cl)C3)c(Cl)cc21` was run?
A: Its IC50 is 26 nM.

Q: With `CN(C)C(=O)C(=O)c1cn(C)c2cc(Cl)c(C(=O)N3CCn4c(cnc4-c4ccc(F)cc4F)C3)cc12` as the compound, how does the IC50 read?
A: Its IC50 is 14 nM.

Q: With `O=C(c1c(Cl)cccc1Cl)N1CCc2c(cnn2-c2ccccc2Cl)C1` as the compound, how does the IC50 read?
A: The IC50 was 112 nM.

Q: `COc1cc2c(ccn2C)cc1C(=O)N1CCn2c(cnc2-c2ccc(F)cc2F)C1` was tested. Which IC50 did it give?
A: Its IC50 is 38 nM.

Q: How did the IC50 turn out when `O=C(c1c(F)cccc1F)N1CCc2c(cnn2-c2ccc(F)cc2Cl)C1` was run?
A: The IC50 was 97 nM.

Q: `O=C(c1c[nH]c2ccccc12)N1CCc2c(cnn2-c2ccccc2Cl)C1` was tested. Which IC50 did it give?
A: The IC50 was 55 nM.
